EP4230701A1, “4-STYRYL COUMARINS DERIVATIVES AS FLUORESCENT LABELS FOR BIOMOLECULES” (Universidade de Évora, priority 2022, dated 2023)
“And” between values parts separate entries of the source, which are not always exact repeats. Equal entries are not always repeated. Where two headings read alike, the source gives them in different places.

Legend:
Format in all cases: physicochemical
[1] = Fluorescence emission spectra in acetonitrile; details: Emission maxima in acetonitrile
Protocol: (§1) All starting materials and reagents were analytical grade, purchased from Aldrich and used without further purification. The organic solvents were dried over appropriate drying agents and distilled prior to use. UV-Vis absorption spectra were recorded on the Thermo Electron Spectrophotometer Corporation, model Nicolet Evolution 300, using acetonitrile (CH3CN) as solvent. Fluorescence spectra were recorded on a PerkinElmer Model LS 55 spectrophotometer. FTMS-ESI mass spectra were obtained on an Thermo Scientific Q Exactive Orbitrap Mass Spectrometer. Nuclear magnetic resonance (NMR) spectra were recorded at 400 MHz for ^1H NMR and at 100 MHz for ^13C NMR, on a Brucker Advance III spectrometer. For NMR spectra, deuterated chloroform (CDCl3) was used as solvent. The chemical shift (π) in ppm; coupling constants (J); relative intensity is indicated by the number of protons (H); multiplicities are indicated by singlet (s), doublet (d), double-doublet (dd), triplet (t), quadruple (q) and multiplet (m); coupling constants are given in Hertz (Hz).
as §1, with “400MHz” for “400 MHz”, “100MHz” for “at 100 MHz”, “^13C,” for “^13C NMR,”, “(CDCl3) or deuterated methanol (CD3OD)” for “(CDCl3)”, “(δ)” for “(π)”

[2] = Fluorescence quantum yield in ethanol against 7-diethylamino-4-methylcoumarin as standard
[3] = UV-Vis absorption spectra in acetonitrile; details: for λabs: Absorption maxima in acetonitrile
Protocol: as §1
as §1, with “400MHz” for “400 MHz”, “100MHz” for “at 100 MHz”, “^13C,” for “^13C NMR,”, “(CDCl3) or deuterated methanol (CD3OD)” for “(CDCl3)”, “(δ)” for “(π)”

[4] = Fluorescence quantum yield in ethanol, standard 7-diethylamino-4-methylcoumarin (ΦF = 0.73 in ethanol)
[5] = Molar extinction coefficient at longest wavelength transition
[6] = Molar extinction coefficient at longest wavelength transition (Table 5)

SMILES	λem [1]	ΦF [2, 4]	λabs [3]	ε [3, 5]	ε [3, 6]	bathochromic shift ([3]; compared with its precursor (1))	ΦF [2]	visible shoulder (lowest energy S0 → S1 transition) ([3]; experimental absorption spectrum)	bathochromic shift ([3]; compared with its precursor (2))
CCN(CC)c1ccc2c(c1)OC(=C(C#N)C#N)C=C2/C=C/c1ccccc1 [Compound 5]	603 nm	0.16	516 nm	17000 cm^-1M^-1					
CCN(CC)c1ccc2c(/C=C/c3ccccc3)cc(=[N+]3CCCCC3)oc2c1.O=[N+]([O-])[O-] [Compound 12, (E)-1-(7-(diethylamino)-4-styryl-2H-chromen-2-ylidene)-piperidin-1-ium nitrate]	525 nm	0.34	467 nm		17000 cm^-1m^-1				
CCN(CC)c1ccc2c(/C=C/c3ccc(N(C)C)cc3)cc(=[N+]3CCCCC3)oc2c1.O=[N+]([O-])[O-] [Compound 13, (E)-1-(7-(diethylamino)-4-(4-(dimethylamino)styryl)-2H-chromen-2ylidene)piperidin-1-ium nitrate]	608 nm		485 nm	39000 cm^-1M^-1	39000 cm^-1m^-1				
CCN(CC)c1ccc2c(/C=C/c3ccc(OC)cc3)cc(=[N+]3CCCCC3)oc2c1.O=[N+]([O-])[O-] [Compound 14, (E)-1-(7-(diethylamino)-4-(4-methoxystyryl)-2H-chromen-2-ylidene)piperidin-1-ium nitrate]	578 nm		410 nm		30000 cm^-1m^-1				
CCN(CC)c1ccc2c(C)cc(=[N+]3CCCCC3)oc2c1.O=[N+]([O-])[O-] [Compound 10, 1-(7-(diethylamino)-4-methyl-2H-chromen-2-ylidene)-piperidin-1-ium nitrate]	490 nm	0.14	437 nm		21000 cm^-1m^-1	> 66 nm			
CCN(CC)c1ccc2c(c1)OC(=C(C#N)C#N)C=C2/C=C/c1ccc(N(C)C)cc1 [Compound 6, (E)-2-(7-(diethylamino)-4-(4-(dimethylamine)styryl)-2H-chromen-2ylidene)malononitrile]	597 nm		496 nm	34000 cm^-1M^-1			0.95 and 0.98	around 536 nm	
CCN(CC)c1ccc2c(c1)OC(=C(C#N)C#N)C=C2/C=C/c1ccc(OCCCCCC(=O)ON2C(=O)CCC2=O)cc1 [Compound 9, (E)-2,5-dioxopyrrolidin-1-yl 6-(4-(2-(2-(dicyanomethylene)-7-(diethylamino)-2Hchromen-4-yl)vinyl)phenoxy)hexanoate]	597 nm	0.29	523 nm	24000 cm^-1M^-1					
CCN(CC)c1ccc2c(/C=C/c3ccc(OCCCCCC(=O)ON4C(=O)CCC4=O)cc3)cc(=[N+]3CCCCC3)oc2c1.O=[N+]([O-])[O-] [Compound 16, (E)-1-(7-(diethylamino)-4-(4-((6-((2,5-dioxopyrrolidin-1-yl)oxy)-6oxohexyl)oxy)styryl)-2H-chromen-2-ylidene)piperidin-1-ium nitrate]	577 nm	0.92	404 nm		30000 cm^-1m^-1				
CCN(CC)c1ccc2c(c1)OC(=C(C#N)C#N)C=C2C [Compound 3, 2-(7-(diethylamino)-4-methyl-2H-chromen-2-ylidene)malononitrile]	519 nm	0.05	477 nm	38000 cm^-1M^-1					more than 100 nm
CCN(CC)c1ccc2c(c1)OC(=C(C#N)C#N)C=C2/C=C/c1ccc(C(=O)OC)cc1 [Compound 4]	620 nm	0.04 and 0.08	520 nm	19000 cm^-1M^-1					
CCN(CC)c1ccc2c(c1)OC(=C(C#N)C#N)C=C2/C=C/c1ccc(OC)cc1 [Compound 7, (E)-2-(7-(diethylamino)-4-(4-methoxystyryl)-2H-chromen-2-ylidene)malononitrile]	602 nm	0.20	522 nm	24000 cm^-1M^-1					
CCN(CC)c1ccc2c(c1)OC(=C(C#N)C#N)C=C2/C=C/c1ccc(OCCCCCC(=O)O)cc1 [Compound 8, (E)-6-(4-(2-(2-(dicyanomethylene)-7-(diethylamino)-2H-chromen-4yl)vinyl)phenoxy)hexanoic acid]	596 nm	0.28	519 nm	24000 cm^-1M^-1					
CCN(CC)c1ccc2c(/C=C/c3ccc(OCCCCCC(=O)O)cc3)cc(=[N+]3CCCCC3)oc2c1.O=[N+]([O-])[O-] [Compound 15, (E)-1-(4-(4-((5-carboxypentyl)oxy)styryl)-7-(diethylamino)-2H-chromen-2ylidene)piperidin-1-ium nitrate]	578 nm	0.90	406 nm		30000 cm^-1m^-1				
CCN(CC)c1ccc2c(C)cc(=O)oc2c1 [Compound 1, 7-diethylamino-4-methylcoumarin, reference compound]	434 nm	0.73	371 nm	22910 cm^-1M^-1	22910 cm^-1m^-1				
CCN(CC)c1ccc2c(/C=C/c3ccc(C(=O)OC)cc3)cc(=[N+]3CCCCC3)oc2c1.O=[N+]([O-])[O-] [Compound 11, (E)-1-(7-(diethylamino)-4-(4-(methoxycarbonyl)styryl)-2H-chromen-2ylidene)piperidin-1-ium nitrate]	609 nm	0.08	484 nm	18000 cm^-1M^-1	18000 cm^-1m^-1				
